# Assays:
# [1] = Individual serum elimination rate and half-life (linear regression per employee); conditions: individual estimate;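 on HL (half-life): half-life in years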
# Procedure: (§1) Serum PFAS concentrations were log-transformed. Time was calculated as the elapsed days between supply of clean bottled water and […] blood sampling. We assumed one compartment, first-order elimination kinetics. In this kinetic model, the body is considered as one homogeneous volume in which mixing is instantaneous and from which PFAS could be absorbed, transferred, and eliminated according to the rate of elimination that is proportional to the concentration of PFAS in the body. Two methods were used to estimate serum elimination rate constant (k) and half-life for each PFAS:
# Method 2: For estimation of individual k, linear regression was used to derive the slope ( β ) of the logarithm of serum concentrations vs. time for each employee. The negative value of the slope ( −β ) for each individual was equivalent to the individual k, and individual serum elimination half-life was calculated as ln2/k for each PFAS. If β was positive (i.e., PFAS concentrations tended to increase over the five samplings), the half-life was not calculated.
# [2] = Population average serum elimination rate and half-life (linear mixed model, one compartment, first-order); conditions: population average
# Procedure: as §1
# Briefly, in the linear mixed model In Cij=αi+tijβ+Xiβ′+εij, Cij is the serum concentration of PFAS for individual i at sampling round j; αi is the subject-specific intercept (random intercept); tij is the time; β is the average slope; Xi is a vector of fixed covariates for individual i; β′ stands for the fixed effect coefficients; and εij is the random error term. We modified the model by excluding the subject-specific slope (random slope) due to a failure to converge after inclusion, which may be due to the limited number of study subjects. The negative value of the average slope ( −β ) is the population average k, and average half-life is calculated as ln2/k .
# In the linear mixed model, we included only age and sex as covariates. We based covariate selection on factors that could conceivably confound the PFAS half-life estimation. Working task, duration of employment, number of glasses of water per day, blood donation, and pregnancy before mitigation of PFAS exposure from drinking water can influence the initial serum levels but would not be expected to influence the PFAS half-life.
# A sensitivity analysis was performed using the same linear mixed model but with Cij as the serum levels after subtracting general background levels (using the median levels obtained from the nonexposed reference population). If the serum PFAS levels after subtraction were lower than the half of the background levels, they were replaced with half of the background levels.
# [3] = Urine/serum ratio in paired samples; type: in vivo, human; conditions: mean of four paired samplings per subject, 17 airport employees
# Procedure: (§2) Urinary PFAS concentrations were specific-gravity adjusted. The ratio of urine and serum concentration for each PFAS (urine/serum ratio) at each sampling was calculated based on PFAS concentrations in paired serum and urine samples from 17 employees. Then the personal average urine/serum ratio was calculated using the mean value of repeated samplings for each employee.
# [4] = PFAS levels in urine samples of airport employees, specific-gravity adjusted (LC/MS/MS); type: in vivo, human
# Procedure: Only one employee provided a single urine sample. […] All employees provided written informed consent.
# The samples were thawed 1–2 h, then mixed by vortex shaker and manual turning. […] For the urine samples, 50μL urine was mixed with 25μL of methanol and 25μL of a 50% acetonitrile solution containing isotopically labeled internal standards (see Table S1). Then samples were shaken vigorously for 30 min and centrifuged at 3,000×g for 10 min at room temperature.
# Aliquots of 20μL of the sample were analyzed using LC/MS/MS. […] The analysis was performed in negative ion mode. The ion source temperature was at 350°C.
# as §2
# [5] = model with original serum levels, age and sex as covariates
# [6] = model with serum levels after subtraction of background exposure (sensitivity analysis)
# [7] = 2nd sampling (October 2018), count 17
# [8] = 3rd sampling (November, 2018), count 16
# [9] = 4th sampling (December 2018), count 14
# [10] = 5th sampling (January 2019), count 12
compound,measurement,setting,value
"O=S(=O)(O)C(F)(C(F)(F)F)C(F)(F)C(F)(F)C(F)(F)C(F)(F)C(F)(F)C(F)(F)F (centres unmarked) [1m-PFOS, perfluoro-1-methylheptanesulfonate]",Elimination rate,"[1]; subject 1, 5 samples",0.3 yearly
same,HL (half-life),"[1]; subject 1, 5 samples",2.0 year
same,Elimination rate,"[1]; subject 2, 5 samples",0.1 yearly
same,HL (half-life),"[1]; subject 2, 5 samples",5.4 year
same,Elimination rate,"[1]; subject 3, 5 samples",0.8 yearly
same,HL (half-life),"[1]; subject 3, 5 samples",0.9 year
same,Elimination rate,"[1]; subject 4, 5 samples",−0.1 yearly
same,Elimination rate,"[1]; subject 5, 5 samples",0.1 yearly
same,HL (half-life),"[1]; subject 5, 5 samples",5.9 year
same,Elimination rate,"[1]; subject 6, 4 samples",−0.1 yearly
same,Elimination rate,"[1]; subject 7, 5 samples",−0.3 yearly
same,Elimination rate,"[1]; subject 8, 5 samples",−0.5 yearly
same,Elimination rate,"[1]; subject 9, 5 samples",−0.3 yearly
same,Elimination rate,"[1]; subject 10, 5 samples",0.6 yearly
same,HL (half-life),"[1]; subject 10, 5 samples",1.2 year
same,Elimination rate,"[1]; subject 11, 5 samples",1.9 yearly
same,HL (half-life),"[1]; subject 11, 5 samples",0.4 year
same,Elimination rate,"[1]; subject 12, 5 samples",0.03 yearly
same,Elimination rate,"[1]; subject 13, 5 samples",1.1 yearly
same,HL (half-life),"[1]; subject 13, 5 samples",0.6 year
same,Elimination rate,"[1]; subject 14, 4 samples",1.7 yearly
same,HL (half-life),"[1]; subject 14, 4 samples",0.4 year
same,Elimination rate,"[1]; subject 15, 5 samples",1.3 yearly
same,HL (half-life),"[1]; subject 15, 5 samples",0.6 year
same,Elimination rate,"[1]; subject 16, 5 samples",−0.3 yearly
same,Elimination rate,"[1]; subject 17, 5 samples",2.2 yearly
same,HL (half-life),"[1]; subject 17, 5 samples",0.3 year
same,Constant elimination rate (95% CI),[2]; [5],"0.55 (0.09, 1.01) yearly"
same,Half-life (95% CI),[2]; [5],"1.27 (0.69, 7.64) year"
same,Constant elimination rate (95% CI),[2]; [6],"0.75 (0.15, 1.36) yearly"
same,Half-life (95% CI),[2]; [6],"0.92 (0.51, 4.77) year"
Perfluoro-2/6-methylheptanesulfonate [2/6m-PFOS],Elimination rate,"[1]; subject 1, 5 samples",−0.2 yearly
same,Elimination rate,"[1]; subject 2, 5 samples",0.5 yearly
same,HL (half-life),"[1]; subject 2, 5 samples",1.3 year
same,Elimination rate,"[1]; subject 3, 5 samples",0.7 yearly
same,HL (half-life),"[1]; subject 3, 5 samples",1.0 year
same,Elimination rate,"[1]; subject 4, 5 samples",0.0 yearly
same,Elimination rate,"[1]; subject 5, 5 samples",0.4 yearly
same,HL (half-life),"[1]; subject 5, 5 samples",1.6 year
same,Elimination rate,"[1]; subject 6, 4 samples",0.4 yearly
same,HL (half-life),"[1]; subject 6, 4 samples",1.7 year
same,Elimination rate,"[1]; subject 7, 5 samples",1.1 yearly
same,HL (half-life),"[1]; subject 7, 5 samples",0.6 year
same,Elimination rate,"[1]; subject 8, 5 samples",−0.2 yearly
same,Elimination rate,"[1]; subject 9, 5 samples",0.2 yearly
same,HL (half-life),"[1]; subject 9, 5 samples",4.2 year
same,Elimination rate,"[1]; subject 10, 5 samples",−0.007 yearly
same,Elimination rate,"[1]; subject 11, 5 samples",1.7 yearly
same,HL (half-life),"[1]; subject 11, 5 samples",0.4 year
same,Elimination rate,"[1]; subject 12, 5 samples",1.7 yearly
same,HL (half-life),"[1]; subject 12, 5 samples",0.4 year
same,Elimination rate,"[1]; subject 13, 5 samples",1.0 yearly
same,HL (half-life),"[1]; subject 13, 5 samples",0.7 year
same,Elimination rate,"[1]; subject 14, 4 samples",1.5 yearly
same,HL (half-life),"[1]; subject 14, 4 samples",0.5 year
same,Elimination rate,"[1]; subject 15, 5 samples",1.2 yearly
same,HL (half-life),"[1]; subject 15, 5 samples",0.6 year
same,Elimination rate,"[1]; subject 16, 5 samples",−0.1 yearly
same,Elimination rate,"[1]; subject 17, 5 samples",1.9 yearly
same,HL (half-life),"[1]; subject 17, 5 samples",0.4 year
same,"Personal average urine/serum ratio, median (range)",[3],0.0051 (0.00059–0.032)
same,"Specific gravity adjusted urinary level, 25 percentile",[4]; [7],< LOD
same,"Specific gravity adjusted urinary level, 75 percentile",[4]; [7],< LOD
same,"Specific gravity adjusted urinary level, Max",[4]; [7],< LOD
same,"Specific gravity adjusted urinary level, Median",[4]; [7],< LOD
same,"Specific gravity adjusted urinary level, Min",[4]; [7],< LOD
same,"Specific gravity adjusted urinary level, 25 percentile",[4]; [8],< LOD
same,"Specific gravity adjusted urinary level, 75 percentile",[4]; [8],< LOD
same,"Specific gravity adjusted urinary level, Max",[4]; [8],0.04 ng/mL
same,"Specific gravity adjusted urinary level, Median",[4]; [8],< LOD
same,"Specific gravity adjusted urinary level, Min",[4]; [8],< LOD
same,"Specific gravity adjusted urinary level, 25 percentile",[4]; [9],< LOD
same,"Specific gravity adjusted urinary level, 75 percentile",[4]; [9],< LOD
same,"Specific gravity adjusted urinary level, Max",[4]; [9],1.60 ng/mL
same,"Specific gravity adjusted urinary level, Median",[4]; [9],< LOD
same,"Specific gravity adjusted urinary level, Min",[4]; [9],< LOD
same,"Specific gravity adjusted urinary level, 25 percentile",[4]; [10],< LOD
same,"Specific gravity adjusted urinary level, 75 percentile",[4]; [10],< LOD
same,"Specific gravity adjusted urinary level, Max",[4]; [10],0.03 ng/mL
same,"Specific gravity adjusted urinary level, Median",[4]; [10],< LOD
same,"Specific gravity adjusted urinary level, Min",[4]; [10],< LOD
same,Constant elimination rate (95% CI),[2]; [5],"0.66 (0.29, 1.04) yearly"
same,Half-life (95% CI),[2]; [5],"1.04 (0.67, 2.42) year"
same,Constant elimination rate (95% CI),[2]; [6],"0.95 (0.39, 1.5) yearly"
same,Half-life (95% CI),[2]; [6],"0.73 (0.46, 1.76) year"
perfluoro-3/4/5-methylheptanesulfonate [3/4/5m-PFOS],Elimination rate,"[1]; subject 1, 5 samples",0.4 yearly
same,HL (half-life),"[1]; subject 1, 5 samples",1.9 year
same,Elimination rate,"[1]; subject 2, 5 samples",0.3 yearly
same,HL (half-life),"[1]; subject 2, 5 samples",2.1 year
same,Elimination rate,"[1]; subject 3, 5 samples",0.4 yearly
same,HL (half-life),"[1]; subject 3, 5 samples",1.7 year
same,Elimination rate,"[1]; subject 4, 5 samples",0.1 yearly
same,HL (half-life),"[1]; subject 4, 5 samples",11 year
same,Elimination rate,"[1]; subject 5, 5 samples",0.2 yearly
same,HL (half-life),"[1]; subject 5, 5 samples",3.1 year
same,Elimination rate,"[1]; subject 6, 4 samples",0.04 yearly
same,HL (half-life),"[1]; subject 6, 4 samples",19 year
same,Elimination rate,"[1]; subject 7, 5 samples",0.1 yearly
same,HL (half-life),"[1]; subject 7, 5 samples",4.8 year
same,Elimination rate,"[1]; subject 8, 5 samples",−0.2 yearly
same,Elimination rate,"[1]; subject 9, 5 samples",0.1 yearly
same,HL (half-life),"[1]; subject 9, 5 samples",10 year
same,Elimination rate,"[1]; subject 10, 5 samples",0.2 yearly
same,HL (half-life),"[1]; subject 10, 5 samples",4.0 year
same,Elimination rate,"[1]; subject 11, 5 samples",2.0 yearly
same,HL (half-life),"[1]; subject 11, 5 samples",0.4 year
same,Elimination rate,"[1]; subject 12, 5 samples",0.5 yearly
same,HL (half-life),"[1]; subject 12, 5 samples",1.3 year
same,Elimination rate,"[1]; subject 13, 5 samples",0.5 yearly
same,HL (half-life),"[1]; subject 13, 5 samples",1.5 year
same,Elimination rate,"[1]; subject 14, 4 samples",0.3 yearly
same,HL (half-life),"[1]; subject 14, 4 samples",2.0 year
same,Elimination rate,"[1]; subject 15, 5 samples",2.2 yearly
same,HL (half-life),"[1]; subject 15, 5 samples",0.3 year
same,Elimination rate,"[1]; subject 16, 5 samples",0.3 yearly
same,HL (half-life),"[1]; subject 16, 5 samples",2.0 year
same,Elimination rate,"[1]; subject 17, 5 samples",1.9 yearly
same,HL (half-life),"[1]; subject 17, 5 samples",0.4 year
same,Constant elimination rate (95% CI),[2]; [5],"0.64 (0.18, 1.1) yearly"
same,Half-life (95% CI),[2]; [5],"1.09 (0.63, 3.96) year"
same,Constant elimination rate (95% CI),[2]; [6],"0.83 (0.24, 1.42) yearly"
same,Half-life (95% CI),[2]; [6],"0.83 (0.49, 2.84) year"
